Values of other authors, collected in patent US8222453B2, “Benzamide factor VIIa inhibitors useful as anticoagulants” (Bristol-Myers Squibb Company, priority 2006, dated 2012).

Assays:
deep vein thrombosis = conditions: patients undergoing total knee replacement
[1] = system: systemic thrombin generation; conditions: patients undergoing coronary angioplasty

recombinant nematode anticoagulant protein c2 [rNAPc2]
deep vein thrombosis (deep vein thrombosis): prevents deep vein thrombosis | systemic thrombin generation [1]: reduces systemic thrombin generation
